Data reported in patent US20240041830A1, “CIRCULATING BIOMARKERS OF RESPONSE TO PD-1/PD-L1 BLOCKADE AND GSK-3 INHIBITION” (Brown University, priority 2022, published 2024).

Key:
HCT 116 GFP+ cells = test: single-color GFP+ immune cell co-culture
Experimental: Single-color immune cell co-culture experiments. A total of 5000 HT-29 GFP+ or HCT 116 GFP+ cells were plated per well in a clear-bottom, black-walled 96-well tissue culture plate and were allowed to adhere overnight. Cells were subsequently treated with DMSO, 5 μM elraglusib, or 5000 TALL-104 or NK-92 cells (for an effector-to-tumor ratio of 1:1) for forty-eight hours. Nine images were taken per well at 10× magnification using a Molecular Devices ImageXpress® Confocal HT.ai High-Content Imaging System and quantified for the number of GFP+ objects using the MetaXpress (RRID: SCR_016654) software (Molecular Devices, San Jose, CA, USA). 40× images were also taken at twenty-four hours for representative images of cellular morphology changes.
To determine if pyroptosis-mediated immune cell activity played a role in the co-culture results, the inventors examined higher-power co-culture images for evidence of pyroptosis.

HT-29 = test: microarray analysis; type: cell-based, human; settings: 1 μM, 24 hours, vs untreated
Experimental: Microarrays. A total of 0.5×10^6 tumor cells (HCT-116, HT-29, KM12C) were plated in a 6-well plate and allowed to adhere overnight before 24-hour treatment, as indicated. Then, 1×10^6 immune cells (NK92, TALL-104) were plated and treated with elraglusib as indicated for twenty-four h. RNA was isolated from cell pellets in batches of six using a RNeasy Plus Mini Kit (Cat #74134, Qiagen, Hilden, Germany). Acceptable RNA concentration and quality were verified with Nanodrop and Bioanalyzer measurements. GeneChip™ Human Transcriptome Array 2.0 assays were conducted according to manufacturer instructions in two batches using randomized samples to limit batch effects (Cat #902162, Applied Biosystems, Waltham, MA, USA). Applied Biosystems Transcriptomic Analysis Console (TAC) software (RRID: SCR_016519) was used to calculate fold changes in gene expression relative to the untreated control cells. Values were considered statistically significant for p values<0.05.
The inventors then utilized microarray analysis to gain insights into gene expression changes in colorectal cancer cell lines post-GSK-3 inhibition with elraglusib. Several colorectal cancer cell lines (HCT-116, HT-29, KM12C) were treated with elraglusib at IC-50 concentrations or DMSO as vehicle control for twenty-four hours. Treated versus untreated samples were compared in triplicate using microarray analysis FIG. 10. Results were calculated using a fold change (FC) cutoff of >1.5, <−1.5, and a minimum p-value of<0.05. HCT-116 cells had 340 differentially expressed genes post-treatment. FIG. 2C.
TABLE 9 description. HT-29 CRC cell microarray analysis. HT-29 colorectal cancer cells were treated with 1 μM elraglusib for 24 hours and treated versus untreated control samples were compared in triplicate via microarray analysis (N=3). Table showing differentially expressed genes of interest with their corresponding fold changes, p values, descriptions, and functions. Genes highlighted in yellow are known p53 targets. Genes are ordered by fold change and were calculated using a fold change cutoff of >1.5, <−1.5, and a minimum p value of <0.05.

[1] = system: adult T-cell leukemia/lymphoma (ATLL); test: case of refractory ATLL treated in clinical trial NCT03678883; type: in vivo, human
Text: This EXAMPLE discloses a case of adult T-cell leukemia/lymphoma (ATLL) treated with elraglusib. A patient developed diffuse lymphadenopathy. […] CSF was positive for ATLL involvement. Twenty-two months after the diagnosis of ATLL was confirmed, as a fourth-line therapy in the presence of actively progressing disease, the patient was enrolled a Phase I/II study investigating the safety and efficacy of elraglusib, a selective small molecule inhibitor of glycogen synthase kinase-3 beta (GSK-3β) as monotherapy or in combination with chemotherapy in refractory solid tumors and hematological malignancies (NCT03678883). The patient started treatment with single-agent elraglusib (12.37 mg/kg IV twice weekly: 21-day cycle). […] This stability was confirmed on CT imaging after five and seven cycles of therapy.

In the case of `Cn1cc(C2=C(c3coc4ccc(F)cc34)C(=O)NC2=O)c2cc3c(cc21)OCO3` [elraglusib], the tumor cell death (HCT 116 GFP+ cells; 5 μM elraglusib and NK-92 vs drug-only or immune-cell-only) was “increased tumor cell death”, the “GFP+ cells per low-powered field” value (HCT 116 GFP+ cells; 5 μM elraglusib only vs DMSO only, forty-eight hours) was “significant decrease” and the “number of GFP+ cells per field” value (HCT 116 GFP+ cells; TALL-104 and 5 μM elraglusib vs TALL-104) was “significant decrease”. The pyroptotic events (HCT 116 GFP+ cells; co-culture with TALL-104, 5 μM elraglusib) was “significant increase”, the “AEN Fold Change” value (HT-29) was 2.33 and the “AGGF1 Fold Change” value (HT-29) was −2.21. For the same molecule, the “B2M Fold Change” value (HT-29) was 2.41, the “BARD1 Fold Change” value (HT-29) was −5.06 and the “BCCIP Fold Change” value (HT-29) was 1.61. For the same molecule, the “BCL6 Fold Change” value (HT-29) was −3.43, the “BRAF Fold Change” value (HT-29) was −1.53 and the “BTN3A2 Fold Change” value (HT-29) was −1.58. For the same molecule, the “CCAR1 Fold Change” value (HT-29) was 1.56, the “CCNE1 Fold Change” value (HT-29) was −2.6 and the “CCNE2 Fold Change” value (HT-29) was −5.83. For the same molecule, the “CD14 Fold Change” value (HT-29) was −2.63, the “CD276 Fold Change” value (HT-29) was −1.56 and the “CDC25C Fold Change” value (HT-29) was −2.45. The “CDC45 Fold Change” value (HT-29) was −1.75, the “CDCA3 Fold Change” value (HT-29) was −1.7 and the “CDK1 Fold Change” value (HT-29) was −3.05. The “CDK2 Fold Change” value (HT-29) was −2.23, the “CDKN1A Fold Change” value (HT-29) was 1.72 and the “CRLF3 Fold Change” value (HT-29) was 1.5. For the same molecule, the “DYNC1H1 Fold Change” value (HT-29) was −1.7, the “E2F7 Fold Change” value (HT-29) was −3.82 and the “E2F8 Fold Change” value (HT-29) was −3.1. The “EAPP Fold Change” value (HT-29) was −1.58, the “EGR1 Fold Change” value (HT-29) was 5.41 and the “ERBB2IP Fold Change” value (HT-29) was −1.7. The “FADD Fold Change” value (HT-29) was −1.66, the “FZD7 Fold Change” value (HT-29) was −1.71 and the “HIP1 Fold Change” value (HT-29) was −1.67. For the same molecule, the “IL17RA Fold Change” value (HT-29) was −1.68, the “IL17RB Fold Change” value (HT-29) was −2.03 and the “ITGB6 Fold Change” value (HT-29) was −1.91. For the same molecule, the “JAK1 Fold Change” value (HT-29) was −1.58, the “MAP3K1 Fold Change” value (HT-29) was −6.1 and the “MCIDAS Fold Change” value (HT-29) was −1.61. For the same molecule, the “MDM4 Fold Change” value (HT-29) was 1.68, the “MTA3 Fold Change” value (HT-29) was −1.84 and the “MYD88 Fold Change” value (HT-29) was −1.68. The “NCR3LG1 Fold Change” value (HT-29) was 1.78, the “NFKBIA Fold Change” value (HT-29) was −5.25 and the “NFKBIZ Fold Change” value (HT-29) was −2.68. The “PDS5B Fold Change” value (HT-29) was −1.58, the “PIM1 Fold Change” value (HT-29) was −1.75 and the “SFN Fold Change” value (HT-29) was 1.54. The “SGK1 Fold Change” value (HT-29) was −1.75, the “SMAD3 Fold Change” value (HT-29) was 1.69 and the “SOCS7 Fold Change” value (HT-29) was 1.74. The “TGFBR3 Fold Change” value (HT-29) was −4.82, the “TNFRSF12A Fold Change” value (HT-29) was 1.9 and the “TNFSF15 Fold Change” value (HT-29) was −2.32. For the same molecule, the “TNIK Fold Change” value (HT-29) was −1.51, the “TRAIP Fold Change” value (HT-29) was 1.83 and the “TRIB1 Fold Change” value (HT-29) was −9.14. For the same molecule, the “UHRF1 Fold Change” value (HT-29) was −1.75, the tolerability ([1]; 12.37 mg/kg IV twice weekly) was “tolerated the treatment well without significant adverse effects” and the “sIL-2 r serum concentration” value ([1]; after nineteen cycles of treatment, 9,043 ng/ml one month before treatment) was 2,094 ng/ml. For the same molecule, the “CT imaging response by RECIST Criteria” value ([1]; after ten cycles (seven months), 12.37 mg/kg IV twice weekly) was “partial response”, the CT imaging response ([1]; after two cycles, 12.37 mg/kg IV twice weekly, 21-day cycle) was “stable disease” and the “duration of sustained reduction of peripheral blood ATLL cells” value ([1]; elraglusib monotherapy) was “fifteen”.
